Measured values as given in publication PMC9944496 (Food Chemistry: X, 2023).

Target: T1, AbXOD (Acinetobacter baumannii xanthine oxidase; "wild-type" = AbXDH Y351V) (Acinetobacter baumannii, UniProt A0A0U3AJU6)
T1 construct: gene xdhB
Settings: 50 mmol/L Tris/HCl pH 8.5, 40 °C; apparent Km; paper's wild-type carries Y351V in A subunit; substrate inhibition constant; second site

Structure (SMILES): O=c1[nH]c(=O)c2[nH]cnc2[nH]1 [xanthine]
- Ki: 21.11 mM
